Reference: PMC10258794, “To Fold or Not to Fold: Diastereomeric Optimization of an α-Helical Antimicrobial Peptide” (Journal of Medicinal Chemistry, 2023)
In brackets after ≈: the same amount, converted by molar mass. Like-named read-outs stand apart in the source and are kept apart here. Non-standard residues stand in square brackets, D forms with d. Residues, ends and D or L forms follow the SMILES beside them.

Legend:
[1] = system: Stenotrophomonas maltophilia; experiment: microbe, parasite or virus in culture; format: cell-based; settings: pH 7.4
Experimental: (§1) Antimicrobial activity was determined for all peptides on E. coli W3110, P. aeruginosa PAO1, A. baumannii ATCC19606, K. pneumoniae NCTC418, and methicillin-resistant S. aureus COL and for selected peptides on P. aeruginosa PA14 and the polymyxin B-resistant derivatives PA14 4.13, PA14 4.18, and PA14 2P4 as well as the clinical isolates ZEM-1A and ZEM9A, K. pneumoniae OXA-48, Enterobacter cloacae, Stenotrophomonas maltophilia, B. cenocepacia, and Staphylococus epidermis. To determine the MIC, the broth microdilution method was used.[75] A single bacterial colony was grown in LB medium overnight at 37 °C and 180 rpm shaking. The compounds were prepared as stock solutions of 2 mg/mL in sterilized milliQ deionized water, added to the first well of 96-well sterile, polypropylene round-bottom microtiter plates (TPP, untreated, Corning Incorporated, Kennebunk, USA), and diluted serially by 1/2. […] The bacterial inoculum was prepared by measuring the absorbance of the overnight culture, which was diluted to concentration of the bacteria was quantified by measuring absorbance at 600 nm and diluted to an OD600 of 0.022 in MH medium pH 7.4 (Sigma-Aldrich, Buchs, Switzerland). The sample solutions (150 μL) were mixed with 4 μL of diluted bacterial suspension with a final inoculation of about 5 × 10^5 CFU. For each test, two columns of the plate were kept for sterility control (MH medium only) and growth control (MH medium with bacterial inoculum, no compound). […] The plates were incubated at 37 °C for 16–20 h under static conditions. 15 μL of 3-(4,5-dimethylthiazol-2-yl)-2,5-diphenyltetrazolium bromide (MTT)[76] (1 mg/mL in sterilized milliQ deionized water) was added to each well, and the plates were incubated at room temperature until MTT staining was completed. The MIC was defined as the lowest concentration of the dendrimer that inhibits the visible growth of the tested bacteria (yellow) with the unaided eye.

HEK293 cells = experiment: Alamar blue cytotoxicity, HEK293; format: cell-based, human; settings: 24 h, mean ± SD, n = 3, read-out: Toxicity on HEK293 cells
Experimental: The A549 human lung adenocarcinoma cells are derived from a patient and were kindly given to us by Dr. Georgia Konstatinidou (Pharmacology Institute, Bern University). HEK293T cells were obtained from ATCC (CRL-11268). A549 and HEK293 were cultured in an incubator at 37 °C with 5% CO2 in RPMI-1640 (Gibco) and DMEM (Gibco) containing 10% fetal bovine serum (Thermo Fisher), 100 I.U./mL penicillin, and 100 μg/mL streptomycin (Gibco).
The viability of the cells was assessed with an AlamarBlue assay (ThermoFisher). Cells were seeded into 96-well plates, 4000 cells/well (HEK293) and 8000 cells/well (A549), the day before the experiment. Cells were then treated with the increasing concentration of the compound and incubated for 24 h at 37 °C in the presence of 5% CO2. The next day, the medium was removed and replaced by a 10% AlamarBlue solution in full growth medium (DMEM or RPMI-1640). The cells were incubated for 3–5 h at 37 °C with 5% CO2 in a humidified atmosphere. The fluorescence was then measured on a Tecan Infinite M1000 Pro plate reader at λex 560 nm and λem 590 nm. The value was normalized according to the untreated cells.

P. aeruginosa ZEM9A = experiment: microbe, parasite or virus in culture; format: cell-based, Pseudomonas aeruginosa; settings: pH 7.4
Experimental: as §1

S. aureus COL MRSA = settings: for MIC S. aureus COL MRSA: MH broth pH 7.4, 16–20 h, 37 °C
Method in brief: (§2)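 MTT read-out: lowest concentration with no visible growth (yellow wells, unaided eye) taken as MIC. Inoculum ~5 × 10^5 CFU in MH pH 7.4 from OD600 0.022 dilution; 2-fold compound series; 16–20 h, 37 °C, no shaking.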

P. aeruginosa PAO1 = system: P. aeruginosa PAO1
Method in brief: as §2

A. baumannii ATCC19606 = system: A. baumannii ATCC19606
Method in brief: as §2

[2] = system: Pseudomonas aeruginosa, Klebsiella pneumoniae, Acinetobacter baumannii, Escherichia coli, and methicillin-resistant Staphylococcus aureus; settings: summary of Table 1
Method in brief: as §2

E. coli W3110 = settings: MH broth pH 7.4, 16–20 h, 37 °C
Method in brief: as §2

K. pneumoniae NCTC418 = system: K. pneumoniae NCTC418
Method in brief: as §2

P. aeruginosa PA14 = experiment: microbe, parasite or virus in culture
Method in brief: as §2

PA14 2P4 (pmrB) = experiment: microbe, parasite or virus in culture; settings: supplementary CSV
Method in brief: as §2

Enterobacter cloacae = experiment: microbe, parasite or virus in culture; settings: pH 7.4
Method in brief: as §2

Burkolderia cenocepacia = experiment: microbe, parasite or virus in culture; settings: MDR strain; MH broth pH 7.4, 16–20 h, 37 °C
PA14 4.13 (phoQ) = experiment: microbe, parasite or virus in culture; settings: supplementary CSV
Method in brief: as §2

PA14 4.18 (pmrB) = experiment: microbe, parasite or virus in culture; settings: supplementary CSV
Method in brief: as §2

P. aeruginosa ZEM-1A = experiment: microbe, parasite or virus in culture; settings: pH 7.4
Method in brief: as §2

K. pneumoniae Oxa-48 = experiment: MIC broth microdilution, K. pneumoniae Oxa-48; format: cell-based, Klebsiella pneumoniae; settings: MDR strain; MH broth pH 7.4, 16–20 h, 37 °C
Experimental: as §1

Staphylococcus epidermis = experiment: MIC broth microdilution, Staphylococcus epidermis; format: cell-based; settings: pH 7.4
Experimental: as §1

[3] = EYPG vesicle leakage assay; format: biochemical; settings: 10 μg/mL of compound; 10 mM TRIS, 107 mM NaCl, pH 7.4
Experimental: (§3) 5(6)-carboxyfluorescein (CF) was purchased from Sigma. EYPC, EYPG, and a Mini-Extruder were purchased from Avanti Polar Lipids. Egg PC or Egg PG thin lipid layers were prepared by evaporating a solution of 100 mg of EYPC or EYPG in 4 mL of MeOH/CHCl3 (1:1) on a rotary evaporator at room temperature and then dried in vacuo overnight. […] Extravesicular components were removed by gel filtration (Sephadex G-50) with 10 mM TRIS, 107 mM NaCl, pH 7.4 buffer. Final conditions: ∼2.5 mM PC or PG; inside: 50 mM CF, 10 mM TRIS, 10 mM NaCl, pH 7.4 buffer; outside: 10 mM TRIS, 107 mM NaCl, pH 7.4. […] The CF efflux was monitored at λem 517 nm (λex 492 nm) as a function of time after addition of the desired volume of peptide from 2 mg/mL stock in mQ water at t = 45 s, 10 and 50 μg/mL were monitored for both EYPC and EYPG. […] Fluorescence intensities were then normalized to the maximal emission intensity using I(t) = (It – I0)/(I∞ – I0) where I0 = It at peptide addition, I∞ = It at saturation of lysis.

[4] = EYPC vesicle leakage assay; format: biochemical; settings: 10 μg/mL of compound; 10 mM TRIS, 107 mM NaCl, pH 7.4
Experimental: as §3

[5] = CD spectroscopy, α-helix content; format: physicochemical; settings: 5 mM DPC in 7 mM PB buffer pH 7.4, Dichroweb Contin LL set 4
Experimental: CD experiments were measured on a Jasco J-715 spectropolarimeter. All the experiments were performed using Hellma Suprasil 110-QS 0.1 cm cuvettes. For each peptide, the measurements were performed in phosphate buffer (PB, pH = 7.4, 7 mM), 10% TFE, 20% TFE, 5 mM DPC. The buffer was degassed for 10 min under high vacuum before each set of experiments. The concentration of the peptides was 0.100 mg/mL, and each sample was measured in one accumulation. The scan rate was 20 nm/min, pitch was 0.5 nm, response was 16 s, and bandwidth was 1.0 nm. The nitrogen flow was kept >8 L/min. After each measurement, the cuvettes were washed successively with milli-Q H2O and PB (pH 7.4). The baseline was recorded under the same conditions and subtracted manually. Primary CD spectra were analyzed using DichroWeb[58] and Contin-LL method (set 4).[74]

human red blood cells = experiment: Hemolysis assay (MHC)
Experimental: To determine the MHC stock solutions, 8 mg/mL peptide in PBS (pH 7.4) was prepared, and 50 μL was diluted serially by l/2 in 50 μL of PBS (pH 7.4) in a 96-well plate (Costar or Nunc, polystyrene, untreated). […] Plasma was discarded, and the pellet was re-suspended in a 15 mL Falcon tube in 5 mL of PBS. The washing was repeated three times, and the remaining pellet was re-suspended in 10 mL of PBS. The hRBC suspension (50 μL) was added to each well, and the plate was incubated at room temperature for 4 h. MHC end points were determined by visual determination of the wells after the incubation period. Controls on each plate included a blank medium control (50 μL PBS + 50 μL of hRBCs suspension) and a hemolytic activity control (mQ-deionized water 50 μL + 50 μL hRBC suspension).

[6] = supplementary CSV, ranges of Table 1 given as one number
[7] = MH broth pH 7.4, 16–20 h, 37 °C

SMILES: CC(C)C[C@H](NC(=O)[C@H](CC(C)C)NC(=O)[C@H](CC(C)C)NC(=O)[C@H](CCCCN)NC(=O)[C@@H](CC(C)C)NC(=O)[C@H](CC(C)C)NC(=O)[C@H](CCCCN)NC(=O)[C@@H](CC(C)C)NC(=O)[C@@H](CC(C)C)NC(=O)[C@@H](CCCCN)NC(=O)[C@@H](N)CCCCN)C(N)=O [HP11, KkllKLlKLLL]
- MIC Stenotrophomonas maltophilia [1]: 4 µg/mL (≈ 3.03 µM)
- IC50 (HEK293 cells): 64.8 ± 4.3 µM
- MIC ZEM9A (P. aeruginosa ZEM9A): 8 µg/mL (≈ 6.05 µM)
- MIC S. aureus COL MRSA (S. aureus COL MRSA): 2 µg/mL (≈ 1.51 µM)
- MIC S. aureus COL (S. aureus COL MRSA; [6]): 2 µg/mL (≈ 1.51 µM)
- MIC P. aeruginosa PAO1 (P. aeruginosa PAO1; [7]): 2 to 4 µg/mL
- MIC P. aeruginosa PAO1 (P. aeruginosa PAO1; [6]): 3 µg/mL (≈ 2.27 µM)
- MIC A. baumannii ATCC19606 (A. baumannii ATCC19606; [7]): 2 µg/mL (≈ 1.51 µM)
- MIC A. baumannii ATCC19606 (A. baumannii ATCC19606; [6]): 2 µg/mL (≈ 1.51 µM)
- MIC, span over the five bacterial strains [2]: 2 to 8 µg/mL
- MIC E. coli W3110 (E. coli W3110): 2 µg/mL (≈ 1.51 µM)
- MIC K. pneumoniae NCTC418 (K. pneumoniae NCTC418; [7]): 4 to 8 µg/mL
- MIC K. pneumoniae NCTC418 (K. pneumoniae NCTC418; [6]): 6 µg/mL (≈ 4.54 µM)
- MIC PA14 (P. aeruginosa PA14; [7]): 1 µg/mL (≈ 0.757 µM)
- MIC P. aeruginosa PA14 (P. aeruginosa PA14; supplementary CSV): 1 µg/mL (≈ 0.757 µM)
- MIC P. aeruginosaPA14 2P4 (PA14 2P4 (pmrB)): 16 µg/mL (≈ 12.1 µM)
- MIC Enterobacter cloacae (Enterobacter cloacae): 4 µg/mL (≈ 3.03 µM)
- MIC Burkolderia cenocepacia (Burkolderia cenocepacia): >64 µg/mL
- MIC P. aeruginosa PA14 4.13 (PA14 4.13 (phoQ)): 2 µg/mL (≈ 1.51 µM)
- MIC P. aeruginosa PA14 4.18 (PA14 4.18 (pmrB)): 8 µg/mL (≈ 6.05 µM)
- MIC ZEM-1A (P. aeruginosa ZEM-1A): 2 µg/mL (≈ 1.51 µM)
- MIC K. pneumoniae Oxa-48 (K. pneumoniae Oxa-48): 4 µg/mL (≈ 3.03 µM)
- MIC S. aureus Newman (S. aureus Newman; [7]): 2 µg/mL (≈ 1.51 µM)
- MIC S. aureus Newmann (S. aureus Newman; supplementary CSV): 2 µg/mL (≈ 1.51 µM)
- MIC Staphylococcus epidermis (Staphylococcus epidermis): 4 µg/mL (≈ 3.03 µM)

SMILES: CC[C@H](C)[C@H](NC(=O)[C@@H](NC(=O)[C@@H](NC(=O)[C@@H](CCCCN)NC(=O)[C@@H](NC(=O)[C@@H](NC(=O)[C@@H](CCCCN)NC(=O)[C@@H](NC(=O)[C@@H](NC(=O)[C@@H](CCCCN)NC(=O)[C@H](N)CCCCN)[C@@H](C)CC)[C@@H](C)CC)[C@@H](C)CC)[C@@H](C)CC)[C@@H](C)CC)[C@@H](C)CC)C(N)=O [HP35, kkIIkIIkIII] (H-[dK][dK]II[dK]II[dK]III-NH2)
- EYPG vesicle leakage (%) [3]: 98%
- MIC S. aureus COL (S. aureus COL MRSA; COL): >64 µg/mL
- MIC S. aureus COL MRSA (S. aureus COL MRSA): >64 µg/mL
- MIC P. aeruginosa PAO1 (P. aeruginosa PAO1; [7]): 16 µg/mL (≈ 12.1 µM)
- MIC A. baumannii ATCC19606 (A. baumannii ATCC19606; [7]): 8 µg/mL (≈ 6.05 µM)
- MIC E. coli W3110 (E. coli W3110): 4 µg/mL (≈ 3.03 µM)
- MIC K. pneumoniae NCTC418 (K. pneumoniae NCTC418; [7]): >64 µg/mL
- EYPC vesicle leakage (%) [4]: 13%
- α-helix content (%) [5]: 22%
- MHC (human red blood cells): 125 µg/mL
- MHC (human red blood cells; pH 7.4): 125 µg/mL
